Source: PubChem BioAssay AID1259407 (Chemical Carcinogenesis Research Information System (CCRIS), 2018)
Activity calls are given as the source filed them. No rule for the calls is given here.

Test system: CCRIS mutagenicity, Ames/micronucleus/aberration tests
Test: CCRIS mutagenicity studies
[1] = Test System: AMES SALMONELLA TYPHIMURIUM, Strain/Indicator: TA98, Metabolic Activation: NONE, Method: PREINCUBATION
[2] = Test System: AMES SALMONELLA TYPHIMURIUM, Strain/Indicator: TA98, Metabolic Activation: NONE, Method: STANDARD PLATE
[3] = Test System: AMES SALMONELLA TYPHIMURIUM, Strain/Indicator: TA100, Metabolic Activation: NONE, Method: STANDARD PLATE
[4] = End Point: IN VITRO CHROMOSOMAL ABERRATIONS, Test System: CHINESE HAMSTER OVARY CELLS, Metabolic Activation: NONE
[5] = End Point: IN VITRO CHROMOSOMAL ABERRATIONS, Test System: CHINESE HAMSTER OVARY CELLS, Metabolic Activation: RAT, LIVER, S-9, AROCLOR 1254
[6] = Test System: AMES SALMONELLA TYPHIMURIUM, Strain/Indicator: TA98, Metabolic Activation: RAT, LIVER, S-9, AROCLOR 1254, Method: STANDARD PLATE
[7] = Test System: AMES SALMONELLA TYPHIMURIUM, Strain/Indicator: TA100, Metabolic Activation: RAT, LIVER, S-9, AROCLOR 1254, Method: STANDARD PLATE
[8] = Test System: AMES SALMONELLA TYPHIMURIUM, Strain/Indicator: TA1535, Metabolic Activation: NONE, Method: STANDARD PLATE
[9] = Test System: AMES SALMONELLA TYPHIMURIUM, Strain/Indicator: TA1535, Metabolic Activation: RAT, LIVER, S-9, AROCLOR 1254, Method: STANDARD PLATE
[10] = Test System: AMES SALMONELLA TYPHIMURIUM, Strain/Indicator: TA1537, Metabolic Activation: NONE, Method: STANDARD PLATE
[11] = Test System: AMES SALMONELLA TYPHIMURIUM, Strain/Indicator: TA1537, Metabolic Activation: RAT, LIVER, S-9, AROCLOR 1254, Method: STANDARD PLATE
[12] = Test System: AMES SALMONELLA TYPHIMURIUM, Strain/Indicator: TA1538, Metabolic Activation: NONE, Method: STANDARD PLATE
[13] = Test System: AMES SALMONELLA TYPHIMURIUM, Strain/Indicator: TA1538, Metabolic Activation: RAT, LIVER, S-9, AROCLOR 1254, Method: STANDARD PLATE
[14] = Test System: AMES SALMONELLA TYPHIMURIUM, Strain/Indicator: TA100, Metabolic Activation: NONE, Method: PREINCUBATION
[15] = Test System: AMES SALMONELLA TYPHIMURIUM, Strain/Indicator: TA1535, Metabolic Activation: NONE, Method: PREINCUBATION
[16] = Test System: AMES SALMONELLA TYPHIMURIUM, Strain/Indicator: TA98, Metabolic Activation: HAMSTER, LIVER, S-9, AROCLOR 1254 (10%), Method: PREINCUBATION
[17] = Test System: AMES SALMONELLA TYPHIMURIUM, Strain/Indicator: TA98, Metabolic Activation: RAT, LIVER, S-9, AROCLOR 1254 (10%), Method: PREINCUBATION
[18] = Test System: AMES SALMONELLA TYPHIMURIUM, Strain/Indicator: TA100, Metabolic Activation: HAMSTER, LIVER, S-9, AROCLOR 1254 (10%), Method: PREINCUBATION
[19] = Test System: AMES SALMONELLA TYPHIMURIUM, Strain/Indicator: TA100, Metabolic Activation: RAT, LIVER, S-9, AROCLOR 1254 (10%), Method: PREINCUBATION
[20] = Test System: AMES SALMONELLA TYPHIMURIUM, Strain/Indicator: TA1535, Metabolic Activation: HAMSTER, LIVER, S-9, AROCLOR 1254 (10%), Method: PREINCUBATION
[21] = Test System: AMES SALMONELLA TYPHIMURIUM, Strain/Indicator: TA1535, Metabolic Activation: RAT, LIVER, S-9, AROCLOR 1254 (10%), Method: PREINCUBATION

Measured: mutagenic call

COC(=O)/C(C#N)=C/c1ccc([N+](=O)[O-])o1
active: [1] active; positive

O=[N+]([O-])c1ccc2ccc3c4ccccc4c([N+](=O)[O-])c4ccc1c2c43
active: Test System: AMES SALMONELLA TYPHIMURIUM, Strain/Indicator: TA98(1,8-DNP6), Metabolic Activation: NONE active; positive | Test System: AMES SALMONELLA TYPHIMURIUM, Strain/Indicator: TA98(NR), Metabolic Activation: NONE active; positive | Test System: AMES SALMONELLA TYPHIMURIUM, Strain/Indicator: TA98(NR), Metabolic Activation: NONE, Method: PREINCUBATION active; positive | Test System: AMES SALMONELLA TYPHIMURIUM, Strain/Indicator: TA98, Metabolic Activation: NONE active; positive | [1] active; positive | [2] active; positive | [3] active; positive

O=C([O-])c1cc(N=Nc2ccc(-c3ccc(N/N=c4/c(=O)cc/c(=N\Nc5cc(S(=O)(=O)[O-])ccc5[O-])c4=O)cc3)cc2)ccc1[O-].[Cu+2].[Na+].[Na+]
inactive: [4] inactive; negative | [5] inactive; negative | [2] inactive; negative | [6] inactive; negative | [3] inactive; negative | [7] inactive; negative | [8] inactive; negative | [9] inactive; negative | [10] inactive; negative | [11] inactive; negative | [12] inactive; negative | [13] inactive; negative
active: Test System: AMES SALMONELLA TYPHIMURIUM, Strain/Indicator: TA98, Metabolic Activation: HAMSTER, LIVER, S-9, Method: PREINCUBATION (PRIVAL METHOD) active; positive

COc1ccccc1CC1CO1 (stereo not drawn)
active: [14] active; positive | [3] active; positive | [15] active; positive | [8] active; positive

ClC1CO1 (stereo not drawn)
active: Test System: CHINESE HAMSTER V-79, Strain/Indicator: V-79/8-AZAGUANINE, Metabolic Activation: NONE, Method: STANDARD PLATE active; positive | Test System: CHINESE HAMSTER V-79, Strain/Indicator: V-79/OUABAIN, Metabolic Activation: NONE, Method: STANDARD PLATE active; positive | Test System: HUMAN H2E1 CELLS, Strain/Indicator: HPRT/6-THIOGUANINE, Metabolic Activation: NONE, Method: SUSPENSION/MICROTITER PLATE active; positive

ClC1C=Cc2cc3c4c(ccc5cccc(c54)C=3)c2=C1 (stereo not drawn)
active: [1] active; positive

CCCCCCCCCCCC(=O)[O][Sn]([CH2]CCC)([CH2]CCC)[O]C(=O)CCCCCCCCCCC
inactive: Test System: AMES SALMONELLA TYPHIMURIUM, Strain/Indicator: TA97, Metabolic Activation: HAMSTER, LIVER, S-9, AROCLOR 1254 (10%), Method: PREINCUBATION inactive; negative | Test System: AMES SALMONELLA TYPHIMURIUM, Strain/Indicator: TA97, Metabolic Activation: HAMSTER, LIVER, S-9, AROCLOR 1254 (30%), Method: PREINCUBATION inactive; negative | Test System: AMES SALMONELLA TYPHIMURIUM, Strain/Indicator: TA97, Metabolic Activation: NONE, Method: PREINCUBATION inactive; negative | Test System: AMES SALMONELLA TYPHIMURIUM, Strain/Indicator: TA97, Metabolic Activation: RAT, LIVER, S-9, AROCLOR 1254 (10%), Method: PREINCUBATION inactive; negative | Test System: AMES SALMONELLA TYPHIMURIUM, Strain/Indicator: TA97, Metabolic Activation: RAT, LIVER, S-9, AROCLOR 1254 (30%), Method: PREINCUBATION inactive; negative | [16] inactive; negative | Test System: AMES SALMONELLA TYPHIMURIUM, Strain/Indicator: TA98, Metabolic Activation: HAMSTER, LIVER, S-9, AROCLOR 1254 (30%), Method: PREINCUBATION inactive; negative | [1] inactive; negative | [17] inactive; negative | Test System: AMES SALMONELLA TYPHIMURIUM, Strain/Indicator: TA98, Metabolic Activation: RAT, LIVER, S-9, AROCLOR 1254 (30%), Method: PREINCUBATION inactive; negative | [18] inactive; negative | Test System: AMES SALMONELLA TYPHIMURIUM, Strain/Indicator: TA100, Metabolic Activation: HAMSTER, LIVER, S-9, AROCLOR 1254 (30%), Method: PREINCUBATION inactive; negative | [14] inactive; negative | [19] inactive; negative | Test System: AMES SALMONELLA TYPHIMURIUM, Strain/Indicator: TA100, Metabolic Activation: RAT, LIVER, S-9, AROCLOR 1254 (30%), Method: PREINCUBATION inactive; negative | [20] inactive; negative | Test System: AMES SALMONELLA TYPHIMURIUM, Strain/Indicator: TA1535, Metabolic Activation: HAMSTER, LIVER, S-9, AROCLOR 1254 (30%), Method: PREINCUBATION inactive; negative | [15] inactive; negative | [21] inactive; negative | Test System: AMES SALMONELLA TYPHIMURIUM, Strain/Indicator: TA1535, Metabolic Activation: RAT, LIVER, S-9, AROCLOR 1254 (30%), Method: PREINCUBATION inactive; negative

CC(=O)NS(=O)(=O)c1ccc(N)cc1
inactive: [4] inactive; negative | [5] inactive; negative | [16] inactive; negative | [1] inactive; negative | [17] inactive; negative | [18] inactive; negative | [14] inactive; negative | [19] inactive; negative | [20] inactive; negative | [15] inactive; negative | [21] inactive; negative | Test System: AMES SALMONELLA TYPHIMURIUM, Strain/Indicator: TA1537, Metabolic Activation: HAMSTER, LIVER, S-9, AROCLOR 1254 (10%), Method: PREINCUBATION inactive; negative | Test System: AMES SALMONELLA TYPHIMURIUM, Strain/Indicator: TA1537, Metabolic Activation: NONE, Method: PREINCUBATION inactive; negative | Test System: AMES SALMONELLA TYPHIMURIUM, Strain/Indicator: TA1537, Metabolic Activation: RAT, LIVER, S-9, AROCLOR 1254 (10%), Method: PREINCUBATION inactive; negative

CC(C)c1cc(N)c([N+](=O)[O-])cc1N
inactive: [2] inactive; negative | [3] inactive; negative | [7] inactive; negative | [8] inactive; negative | [9] inactive; negative | [10] inactive; negative | [11] inactive; negative | [12] inactive; negative
active: [6] active; positive | [13] active; positive
